Test results: US11213522B2, “Autoimmune-induced glutamatergic receptor dysfunction methods and treatments” (SARAH HERZOG MEMORIAL HOSPITAL EZRAT NASHIM ASSOCIATION, priority 2013, dated 2022)

Test system: patient positive for anti-NR1 NMDAR antibodies
Assay: Positive and Negative Syndrome Scale (PANSS), D-serine clinical trial
Assay type: in vivo, human
Conditions: for PANSS Negative: week 0 score 18; for PANSS Positive: week 0 score 24; for PANSS General: week 0 score 55; for PANSS Total: week 0 score 97
Description: Out of the seventeen patients that entered the study, the serum of one patient was strongly positive at both serum sample dilutions for the presence of both IgG and IgM classes of anti-NR1 NMDAR antibodies. The patient was a single person having a diagnosis of schizophrenia according to DSM-IV-R criteria (American Psychiatric Association, 2000 Diagnostic and Statistical Manual of Mental Disorders-(DSM-IV-TR), 4th edition. American Psychiatric Association Washington D.C. (Text Revision)). There was no history of mental disorder in the patient's family. The patient had completed post-high school studies and had worked as a secretary. After a period of continuous headaches, for which no organic basis had been found, they had abruptly developed an acute psychosis characterized by grandiose and paranoid delusions, mystical thinking, […] affect and agitation, They had been hospitalized in a psychiatric hospital and underwent treatment with antipsychotic drugs and electroconvulsive therapy with only partial response. The patient had never returned to their previous functional and except for short attempts at living in the community, has been hospitalized ever since. They have been refractory to treatment with various classes of antipsychotic drugs, was not diagnosed with any medical or neurological disorder and was maintained on sulpiride 50 mg/day, citalopram 40 mg/day, lorazepam 1 mg/day and promethazine 50 mg/day. […] DSR is a naturally occurring amino acid that acts in vivo as an obligatory co-agonist at the glycine modulatory site associated with NMDAR. […] Both acute and chronic administration of 1-2 g DSR in humans is known to result in ≥100 times increases in DSR serum levels (Kantrowitz et al., 2010, Schizophr Res121:125-30; Heresco-Levy et al., 2005, Biol Psychiatry 57:577-85). The trial consisted of two periods, starting with a 2 week lead-in/stabilization period (-2-0) following which the patient was entered in the second period of the study which consisted of a 6 week (0-6), open-label, fixed dose therapy phase. During this phase, the patient received adjuvant treatment with DSR, whose dose was increased from 1500 mg/day (week 1) to 2000 mg/day (weeks 2 and 3) to 3000 mg/day (weeks 4 and 5) and to 4000 mg/day (week 6). The doses of the ongoing medication received by the patient remained fixed throughout the study and no changes in medication were performed. The assessment procedures used in the study included clinical and neurocognitive examinations. Motor and psychiatric symptoms as well as side-effects were rated biweekly throughout the study. The following instruments were used: 1) Positive and Negative Syndrome Scale (PANSS) (Kay et al., 1987, Positive and Negative Syndrome Scale (PANSS) rating manual. San Rafael California: Social and Behavioral Sciences Documents); 2) Quality of Life Scale (QLS) (Wilkinson et al., 2000, Self-report quality of life measure for people with schizophrenia: the SQLS. Br J Psychiatry 177:42-6); 3) Abnormal Involuntary Movement Scale (AIMS) (Guy, 1976, ECDEU Assessment Manual for Psychopharmacology-Revised. Rockville, Md.: US Dept. of Health, Education and Welfare); 4) Simpson Angus Scale for Extrapyramidal Symptoms (SAS) (Simpson and Angus, 1970, Acta Psychiatr Scand Suppl. 212:11-9); and 5) Udvalg for […] Undersogelser (UKU) Side Effect Rating Scale (Lingjaerde, et al., 1987 Acta Psychiatr Scand Suppl 334:1-100). In conjunction with UKU ratings, patient's vital signs and body weight were monitored throughout the study.

## N[C@H](CO)C(=O)O [D-serine]
During treatment with DSR
  PANSS positive, negative and general psychopathology symptom domains: improved
End of study vs baseline total score of 97
  Total PANSS score lower by the end of the study: 17%
Study week 2
  PANSS Negative: 19
  PANSS Positive: 21
  PANSS General: 54
  PANSS Total: 96
Study week 4
  PANSS Negative: 17
  PANSS Positive: 21
  PANSS General: 51
  PANSS Total: 89
Study week 6
  PANSS Negative: 16
  PANSS Positive: 19
  PANSS General: 45
  PANSS Total: 80
